For orientation: IC50 means the concentration that gives 50% inhibition. A word on the T/C: it is the result in the treated group divided by that in the control group, in per cent.

One data set relates to B16-F10 cells. The data set can be described thus: in vitro cytotoxicity against B16-F10 murine melanoma cells (neutral red, 72 hours). Format: cell-based. The settings on record: for IC50: Mus musculus, read-out: Cytotoxicity vs B16 IC50. Here is the method:
(§1) BU-3129T (3,7-dihydroxytropolone) and its analogs were tested for in vitro cytotoxicity against logarithmically growing murine melanoma tumor cells in liquid culture. B16-F10 cells (4×10^4 cells) in the enriched MEM (Minimum essential medium (Eagle's)) containing test material solution were planted into wells of 96-well microtiter plates and incubated at 37° C., with 5% CO2 under high humidity for 72 hours. After staining with neutral red, cytotoxicity of test material was determined colorimetrically. The inhibitory effects on macromolecule biosynthesis were examined in cultured L1210 leukemia cells. L1210 cells (5×10^5 cells) were exposed to radioactive precursors (^3 H-thymidine, ^14 C-uridine and ^3 H-leucine) for 60 min after the treatment with test material for 15 min. The incorporated radioactivities into acid-insoluble fractions were measured by using a liquid scintillation counter. The in vivo antitumor activity of BU-3129T was determined in male BDF1 mice against leukemia P388 and melanoma B16. Leukemia P388 and melanoma B 16 were inoculated by the intraperitoneal injection at 10^6 cells and 0.5 ml of a 10% tumor brei per mouse, respectively. Test material was administered to mice intraperitoneally once daily through 1 to 9 days after tumor implantation. Tropolone and mitomycin C were comparatively tested in the experiments.

The subject of a further data set is leukemia P388. Format: in vivo, mice. The settings on record: for MST / T/C: qd 1→9, ip. Here is the method: as §1
In the next data set the test system is melanoma B16. The data set can be described thus: in vivo antitumor activity against melanoma B16 in male BDF1 mice. The settings on record: for antitumor activity against melanoma B16: in words, mice. Here is the method: as §1
A further data set deals with L1210 leukemia cells. Kind of data set: inhibition of macromolecule biosynthesis in cultured L1210 leukemia cells (incorporation of radioactive precursors). Format: cell-based. The settings on record: Mus musculus. Here is the method: as §1
For data set [1] the following is noted: in words; Kirst paper; cited from earlier work.
The nature of a further data set: solubility. Format: physicochemical.
In data set [2] the test system is mammalian malignant tumors. Kind of data set: inhibitory action against mammalian malignant tumors (summary statement). The settings on record: in words. Here is the method: as §1
Where [3] appears, read: Exp. 1, 0.1 mg/kg/day, qd 1→9, ip.
[4] abbreviates: Exp. 1, 0.3 mg/kg/day, qd 1→9, ip.
The mark [5] stands for this setting: Exp. 1, 1.0 mg/kg/day, qd 1→9, ip.
The mark [6] stands for this setting: L1210, DNA, 3H-thymidine, 60 min after 15 min treatment, read-out: Inhibition of macromolecule biosynthesis vs L1210 IC50, DNA.
Where [7] appears, read: L1210, Protein, 3H-leucine, 60 min after 15 min treatment, read-out: Inhibition of macromolecule biosynthesis vs L1210 IC50, Protein.
Where [8] appears, read: L1210, RNA, 14C-uridine, 60 min after 15 min treatment, read-out: Inhibition of macromolecule biosynthesis vs L1210 IC50, RNA.
The mark [9] stands for this setting: Exp. 2, 1.0 mg/kg/day, qd 1→9, ip.
The mark [10] stands for this setting: Exp. 2, 3.0 mg/kg/day, qd 1→9, ip.
Setting [11] is: Exp. 2, 10 mg/kg/day, qd 1→9, ip.
[12] abbreviates: Exp. 2, 30 mg/kg/day, qd 1→9, ip.
[13] abbreviates: Exp. 1, 0.16 mg/kg/day, qd 1→9, ip.
[14] abbreviates: Exp. 1, 2.5 mg/kg/day, qd 1→9, ip.

≈ marks a conversion by molar mass, not a printed value. Like-named read-outs stand apart in the source and are kept apart here.

With `CO[C@@]12[C@H](COC(N)=O)C3=C(C(=O)C(C)=C(N)C3=O)N1C[C@@H]1N[C@@H]12` [Mitomycin C], the IC50 in the data set on B16-F10 cells (B16-F10, 72 h) amounted to 2 mg/L (≈ 5.98 µM). Besides, the MST in the data set with leukemia P388 (0.08 mg/kg/day) was found to be 12.0 days; in the data set on leukemia P388 (0.16 mg/kg/day), 15.0 days; in the data set on leukemia P388 (0.31 mg/kg/day), 16.0 days; in the data set on leukemia P388 (1.3 mg/kg/day), 21.0 days; in the data set on melanoma B16 (setting [3]), 16.0 days; with melanoma B16 (setting [4]) it was 22.0 days. The molecule also displayed an MST with melanoma B16 (setting [5]) of 27.0 days. Moreover, the T/C in the data set with leukemia P388 (0.08 mg/kg/day) is reported as 114%; in the data set on melanoma B16 (setting [3]), 100%. The “Average weight change on day 5” value was “+1.0 g” in the data set on melanoma B16 (setting [3]), “+0.4 g” in the data set on melanoma B16 (setting [4]) and “+0.6 g” in the data set with melanoma B16 (setting [5]).

Turning to `O=c1c(O)ccc(O)cc1O` [4,7-dihydroxytropolone], the “potency order in the in vitro cytotoxicity test” value (from here on “potency order”) in the data set on B16-F10 cells was “follow by 7-hydroxytropolone, 4,7-dihydroxytropolone, tropolone and 5-hydroxytropolone”. For the same molecule, the IC50 in the data set on B16-F10 cells (B16-F10, 72 h) was 0.38 mg/L (≈ 2.47 µM); with L1210 leukemia cells (setting [6]) it was 39 mg/L (≈ 253 µM); with L1210 leukemia cells (setting [7]), greater than 100 mg/L; in the data set on L1210 leukemia cells (setting [8]), greater than 100 mg/L.

On to `O=c1c(O)ccccc1O` [7-hydroxytropolone], for which the “potency order” value in the data set on B16-F10 cells was “follow by 7-hydroxytropolone, 4,7-dihydroxytropolone, tropolone and 5-hydroxytropolone”. Further, the IC50 was 0.3 mg/L (≈ 2.17 µM) with B16-F10 cells (B16-F10, 72 h); 21 mg/L (≈ 152 µM) in the data set on L1210 leukemia cells (setting [6]); greater than 100 mg/L with L1210 leukemia cells (setting [7]); 41 mg/L (≈ 297 µM) with L1210 leukemia cells (setting [8]).

Take `O=c1cccccc1O` [Tropolone]: the IC50 with B16-F10 cells (B16-F10 cells, 72 hours) was determined as 1.8 mg/L (≈ 14.7 µM); in the data set on L1210 leukemia cells (L1210, read-out: Inhibition of macromolecule biosynthesis vs L1210 IC50, DNA), 2.2 mg/L (≈ 18 µM); with L1210 leukemia cells (L1210, read-out: Inhibition of macromolecule biosynthesis vs L1210 IC50, Protein), 9.9 mg/L (≈ 81.1 µM); in the data set with L1210 leukemia cells (L1210, read-out: Inhibition of macromolecule biosynthesis vs L1210 IC50, RNA), 20 mg/L (≈ 164 µM). In addition, the “potency order” value in the data set with B16-F10 cells (in words) is “follow by 7-hydroxytropolone, 4,7-dihydroxytropolone, tropolone and 5-hydroxytropolone”. Moreover, the “Average weight change on day 5” value in the data set with melanoma B16 (setting [9]) is given as “+2.3 g”; in the data set on melanoma B16 (setting [10]), “+2.5 g”; in the data set with melanoma B16 (setting [11]), “+3.3 g”; in the data set on melanoma B16 (setting [12]), “+2.0 g”. The MST in the data set on melanoma B16 (setting [9]) is listed as 19.0 days; with melanoma B16 (setting [10]), 17.5 days; with melanoma B16 (setting [11]), 18.0 days; with melanoma B16 (setting [12]), 18.0 days. The T/C with melanoma B16 (setting [9]) is 112%; in the data set on melanoma B16 (setting [10]) it was 103%; in the data set with melanoma B16 (setting [11]), 106%; in the data set with melanoma B16 (setting [12]), 106%. For the same molecule, the “antitumor activity against melanoma B16” value with melanoma B16 (ip) is “did not show any activity”.

In the case of `O=c1c(O)cccc(O)c1O` [BU-3129T, 3,7-dihydroxytropolone], the “potency order” value with B16-F10 cells was “most potent”. In addition, the IC50 is 0.04 mg/L (≈ 0.26 µM) with B16-F10 cells (B16-F10, 72 h); 9 to 14 mg/L (≈ 58.4 to 90.8 µM) with L1210 leukemia cells (L1210, DNA, RNA and protein together, non-specific, read-out: inhibitory effects on DNA, RNA and protein biosynthesis, IC50 values); 9.4 mg/L (≈ 61 µM) with L1210 leukemia cells (setting [6]); 11 mg/L (≈ 71.4 µM) in the data set with L1210 leukemia cells (setting [7]); 14 mg/L (≈ 90.8 µM) in the data set on L1210 leukemia cells (setting [8]). Besides, the “times more cytotoxic against B16 melanoma than tropolone and the hydroxytropolones compared” value in the data set with B16-F10 cells (mouse, 4320 min) is recorded as 10-40 times. Also, the antimicrobial activity entry in data set [1] was “possesses antimicrobial activity”. Also, the solubility entry in the data set “solubility” (dimethylformamide) is on record as “readily soluble”; in “solubility” (dimethylsulfoxide), “readily soluble”; in the data set “solubility” (ethanol), “slightly soluble”; in the data set “solubility” (methanol) it was “slightly soluble”; in the data set “solubility” (other organic solvents), “practically insoluble”; in the data set “solubility” (water), “slightly soluble”. The MST in the data set on leukemia P388 (0.16 mg/kg/day) amounted to 11.0 days; with leukemia P388 (0.31 mg/kg/day), 11.0 days; in the data set with leukemia P388 (0.63 mg/kg/day) it was 10.0 days; in the data set on leukemia P388 (1.3 mg/kg/day), 11.0 days; with leukemia P388 (2.5 mg/kg/day), 10.0 days; in the data set on melanoma B16 (setting [13]), 16.0 days. Also, the MST in the data set with melanoma B16 (Exp. 1, 0.31 mg/kg/day, qd 1→9, ip) was found to be 18.0 days; in the data set on melanoma B16 (Exp. 1, 0.63 mg/kg/day, qd 1→9, ip), 23.0 days; in the data set with melanoma B16 (Exp. 1, 1.3 mg/kg/day, qd 1→9, ip), 29.0 days; in the data set on melanoma B16 (setting [14]), 12.0 days. In addition, the T/C stood at 105% with leukemia P388 (0.16 mg/kg/day); 105% in the data set on leukemia P388 (0.31 mg/kg/day); 95% in the data set on leukemia P388 (0.63 mg/kg/day); 105% in the data set on leukemia P388 (1.3 mg/kg/day); 95% in the data set on leukemia P388 (2.5 mg/kg/day); 100% in the data set on melanoma B16 (setting [13]). The molecule further returned a T/C in the data set with melanoma B16 (setting [14]) of 75%. In addition, in the data set on leukemia P388 (in words, mice, ip), the “antitumor activity against leukemia P388” value was “no activity”. Besides, the “toxicity” value with melanoma B16 (Exp. 1, 5.0 mg/kg/day, qd 1→9, ip) is reported as “tox”. Also, in the data set with melanoma B16 (ip), the “antitumor activity against melanoma B16” value is “significant antitumor activity”. Besides, the “Average weight change on day 5” value is listed as “+0.4 g” in the data set with melanoma B16 (mouse, in vivo, ip, 0.16 mg/kg/day); “+1.2 g” in the data set on melanoma B16 (mouse, in vivo, ip, 0.31 mg/kg/day); “+1.0 g” in the data set with melanoma B16 (mouse, in vivo, ip, 0.63 mg/kg/day); “+0.4 g” with melanoma B16 (mouse, in vivo, ip, 1.3 mg/kg/day); -0.8 g in the data set with melanoma B16 (mouse, in vivo, ip, 2.5 mg/kg/day). For the same molecule, in data set [2], the “inhibitory action against mammalian malignant tumors” value is listed as “marked inhibitory action”.

For the molecule `O=c1ccc(O)ccc1O` [5-hydroxytropolone], the “potency order” value with B16-F10 cells is “follow by 7-hydroxytropolone, 4,7-dihydroxytropolone, tropolone and 5-hydroxytropolone”. Also, the IC50 was 2.4 mg/L (≈ 17.4 µM) with B16-F10 cells (B16-F10, 72 h); greater than 100 mg/L in the data set on L1210 leukemia cells (setting [6]); 100 mg/L (≈ 724 µM) in the data set with L1210 leukemia cells (setting [7]); greater than 100 mg/L in the data set on L1210 leukemia cells (setting [8]).

The record behind these values is patent US4833079A, “Process for producing 3,7-dihydroxytropolone and antitumor use thereof” (Bristol-Myers Company, priority 1986, dated 1989).
